Tests used:
[1] = biological target: NEP activity in ‘Control’ human lung homogenates (Homo sapiens, UniProt P08473); test: biochemical; details: read-out: inhibition of NEP activity in ‘Control’ crude lung homogenates
Procedure: (§1) Lung samples ([…]) or PA SMCs were homogenized in 0.5 ml 20 mM MES, pH 6.5, containing protease inhibitors, and for PA SMCs, 0.5% CHAPS. After centrifugation (10,000×g, 10 min), supernatant was stored at −80° C. NEP activity was measured as described (Dempsey et al., 2009). DPPIV activity was measured by DPPIV-Glo Protease Assay (Promega). Western analyses (Dempsey et al., 2009) with anti-human NEP (56C6, Neomarkers) were assessed by densitometry.

recombinant human NEP = recombinant human NEP (Homo sapiens, UniProt P08473); test: biochemical; details: read-out: inhibition of residual rNEP activity
Procedure: as §1

[2] = test system: NEP mRNA in human PA SMCs; test: NEP mRNA levels in human PA SMCs (qRT-PCR); format: cell-based
Procedure: (§2) PA SMCs were isolated from the main PA of ‘normal’ human tissue donors (Clonetics®, Basel, Switzerland, α-SM actin positive, Factor VIII negative). Passages 6-10 were maintained in SmBM® (5% FBS), at 37° C., and used for experimentation. […] The antioxidants Tiron (2.5 mM; Sigma) (Taiwo, 2008), MnTMPyp (an SOD/catalase mimetic (Day et al., 1997), 20 μM; Calbiochem), or polyethylene glycol (PEG) conjugated catalase Beckman et al., 1988) (40 units/ml; Sigma), or the protein degradation inhibitors (Folimycin Huss and Wieczorek, 2009) for lysosomes, 50 nM; Clastolactacystin β-lactone (Dick et al., 1996) for proteasomes, 1 μM; Calbiochem) were added 0.5 or 2 h, respectively, before exposures.

NEP in human PA SMCs = biological target: T1, NEP in human PA SMCs (Homo sapiens, UniProt P08473); test: NEP catalytic activity in human PA SMCs (fluorometric); format: cell-based; details: for prevention of H2O2-induced decreases in PA SMC NEP activity: antioxidant added 0.5 h before 4 h H2O2 (100 μM), MnTMPyp 20 μM, PEG-catalase 40 units/ml
T1 construct: host or cells: primary human PA SMCs, passages 6-10
Procedure: as §1, §2

[3] = test system: SM-contractile proteins (α-SM-actin, SM-myosin, SM-22, calponin); test: SM-contractile protein expression in PASMCs (Western blotting); format: cell-based, mouse
Procedure: Cell lysates were prepared in immunoprecipitation buffer (20 mM Tris HCl (pH 7.5), 150 mM NaCl, 1 mM EDTA, 10% glycerol, 1% Nonidet P-40; 1 mM dithiothreitol, 10 mM NaF, 1 mM sodium orthovanadate, 10 μg/ml leupeptin, 10 μg/ml aprotinin, 10 μg/ml pepstatin A, and 1 mM phenylmethylsulfonyl fluoride) (Petkov et al., 2003). Cells were scraped from the plates, lysed on ice for 30 min. Cellular debris was eliminated by centrifugation for 10 min at 10,000 rpm. The protein concentration was determined by the BCA protein Assay®. Proteins (20-100 μg) were separated on SDS-PAGE and transferred to nitrocellulose membranes obtained from GE Healthcare, (Piscataway, N.J.). Membranes were blocked in PBS containing 0.1% Tween-20 and 1% BSA for 1 h at room temperature. Membranes were incubated with primary antibodies overnight at 4° C., and with secondary antibodies for 1 h at room temperature. All antibodies were diluted in PBS containing 0.1% Tween 20 and 1% BSA, and ECL reagent obtained from Perkin Elmer (Waltham, Mass.) was used for immunodetection. GAPDH was used as a loading control.
A Bio-Rad gel scanner and densitometer (Gel DocXR with Quantity 1 program) were used to assess the intensity of the bands obtained by Western blots. […] The arbitrary units obtained were normalized to GAPDH and the ratios for NEP+/+ to NEP−/− PASMCs were calculated. […]

NEP+/+ PASMCs [4] = test: Migration of NEP+/+ PASMCs (scratch assay); format: cell-based, mouse; details: wild-type PASMCs, 48 h treatment; phosphoramidon 10 μMole/L or NEP siRNA 10 nMole/L; serum 0.2%, PDGF 10 ng/ml
Procedure: (§3) Mice were anesthetized with sodium pentobarbital (100 mg/kg i.p.). Proximal medial tissue was micro dissected from individual age matched 13-17 wk old NEP+/+ and NEP−/− littermate mice. Tissue was digested with […] and cells were grown in DMEM-F-12 medium containing 10% fetal bovine serum (FBS) as described (Petkov et al., 2003). PASMCs were characterized by light microscopic appearance, growth characteristics, and stained for α-SM-actin, SM-myosin, Factor VIII and LDL between passage 3 and 6. PASMCs were used for studies between passage 6 and 13.
Briefly, PASMCs were grown to confluence on 60 mm plates (Hamidi et al., 2008). The cells were serum starved in DMEM-F-12 medium with 0.2% serum for 24 h, and scraped with a sterile P200 pipette tip to generate a cell-free zone. PASMCs were then rinsed with medium and incubated with either 0.2% serum or 10 ng/ml PDGF-BB and cells that migrated into the scratch were visualized by light microscopic imaging. Quantitation of migration was done by counting the number of PASMCs in a 5 cm^2 area of the scratch. […]
Migration was determined by a modified Boyden chamber assay using a polycarbonate filter with […] pore diameter obtained from Neuroprobe (Gaithersburg, Md.) (Said et al., 2007). […] The membranes were examined under a microscope and the cells that migrated to the lower surface were counted (five random 20× fields/well).

[5] = biological target: T2, NEP activity in wild-type cells (Mus musculus, UniProt Q61391); details: phosphoramidon 10 μmole/liter; cited from earlier work
T2 construct: endogenous in cells; host or cells: wild-type (NEP+/+) mouse PASMCs
T2 sequence (Q61391 1-750): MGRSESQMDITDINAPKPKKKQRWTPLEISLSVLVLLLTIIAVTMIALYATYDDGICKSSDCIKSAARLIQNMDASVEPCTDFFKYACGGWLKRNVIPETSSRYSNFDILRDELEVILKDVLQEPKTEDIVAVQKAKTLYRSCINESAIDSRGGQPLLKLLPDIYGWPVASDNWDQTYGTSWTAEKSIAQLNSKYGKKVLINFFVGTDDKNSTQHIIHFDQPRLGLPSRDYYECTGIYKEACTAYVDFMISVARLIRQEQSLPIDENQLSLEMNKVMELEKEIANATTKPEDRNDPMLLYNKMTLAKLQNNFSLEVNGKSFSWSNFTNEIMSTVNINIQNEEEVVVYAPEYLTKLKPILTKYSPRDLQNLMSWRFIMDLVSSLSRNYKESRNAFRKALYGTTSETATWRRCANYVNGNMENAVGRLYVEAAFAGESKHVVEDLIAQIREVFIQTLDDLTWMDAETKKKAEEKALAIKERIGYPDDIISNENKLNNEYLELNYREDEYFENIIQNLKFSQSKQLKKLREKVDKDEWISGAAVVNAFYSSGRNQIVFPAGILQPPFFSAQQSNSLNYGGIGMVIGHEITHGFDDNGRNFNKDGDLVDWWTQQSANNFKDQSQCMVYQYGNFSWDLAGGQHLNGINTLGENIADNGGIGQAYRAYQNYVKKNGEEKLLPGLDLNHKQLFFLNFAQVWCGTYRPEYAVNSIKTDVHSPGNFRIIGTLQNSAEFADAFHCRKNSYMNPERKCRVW

NEP+/+ PASMCs [6] = test: Proliferation of NEP+/+ PASMCs (3H-thymidine incorporation); format: cell-based, mouse; details: wild-type PASMCs, 48 h treatment; phosphoramidon 10 μMole/L or NEP siRNA 10 nMole/L; serum 0.2%, PDGF 10 ng/ml
Procedure: as §3
The effects of growth factors and neuropeptides on DNA synthesis were evaluated as previously reported (Petkov et al., 2003). SMCs were grown in DMEM containing 10% FBS in 24-well plates for about 16 hr. PASMCs were then incubated in DMEM supplemented with 0.2% FBS for 24 hr to make them quiescent. […] [^3H]-thymidine obtained from Perkin Elmer (Waltham, Mass.) at 1 mCi/ml was added for the last 6 hr. After labeling was completed, the cells were washed twice with ice-cold PBS, and proteins were precipitated with 5% perchloric acid. The precipitate was dissolved with 0.5N NaOH and SDS and radioactivity was measured using a liquid scintillation counter made by Beckman Coulter, Inc. (Brea, Calif.).

NEP KO PA SMCs = details: added to the cell culture media or lentiviral transduction; cited from earlier work

T1 sequence (P08473 whole entry): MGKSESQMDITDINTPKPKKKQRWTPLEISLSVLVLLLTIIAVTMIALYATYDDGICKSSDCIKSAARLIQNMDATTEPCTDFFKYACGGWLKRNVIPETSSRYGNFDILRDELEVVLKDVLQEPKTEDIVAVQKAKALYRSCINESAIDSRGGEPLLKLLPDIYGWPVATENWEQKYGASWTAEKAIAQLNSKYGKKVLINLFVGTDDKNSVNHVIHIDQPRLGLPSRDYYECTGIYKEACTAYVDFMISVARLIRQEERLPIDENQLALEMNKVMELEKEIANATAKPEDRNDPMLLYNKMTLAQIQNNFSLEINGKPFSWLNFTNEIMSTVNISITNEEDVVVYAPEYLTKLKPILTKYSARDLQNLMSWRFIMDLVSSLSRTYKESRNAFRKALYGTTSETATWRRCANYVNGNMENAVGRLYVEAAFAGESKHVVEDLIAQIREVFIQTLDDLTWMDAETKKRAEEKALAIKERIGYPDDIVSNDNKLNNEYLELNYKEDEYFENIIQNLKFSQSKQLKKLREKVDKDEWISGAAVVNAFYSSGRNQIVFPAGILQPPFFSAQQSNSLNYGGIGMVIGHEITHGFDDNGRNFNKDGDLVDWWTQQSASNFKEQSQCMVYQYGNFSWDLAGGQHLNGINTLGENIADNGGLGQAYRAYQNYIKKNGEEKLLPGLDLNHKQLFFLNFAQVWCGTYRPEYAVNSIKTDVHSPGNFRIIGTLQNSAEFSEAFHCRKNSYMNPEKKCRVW
Sequence of NEP activity in ‘Control’ human lung homogenates (P08473 whole entry): as above
Sequence of recombinant human NEP (P08473 whole entry): as above

OO [H2O2, hydrogen peroxide]
inhibition at 100 µM [1]: 38%
inhibition at 100 µM (recombinant human NEP): 68%
effect on NEP mRNA expression ([2]; 100 μM H2O2, 48 h): did not significantly decrease
transient decrease in NEP mRNA ([2]; after 4 h exposure to H2O2, preliminary experiments): 40%
NEP activity after exposure, without Tiron (NEP in human PA SMCs; 4 h exposure, CSE 5 μg/ml, H2O2 100 μM): significantly decreased

O=S(=O)(O)c1cc(O)c(O)c(S(=O)(=O)O)c1 [Tiron]
prevention of decreases in NEP activity due to CSE, hypoxia or H2O2 (NEP in human PA SMCs; Tiron 2.5 mM, 0.5 h before and throughout 4 h exposure): prevented
NEP activity under normoxia with Tiron vs normoxia alone (NEP in human PA SMCs; Tiron 2.5 mM, normoxia): did not differ significantly
prevention of H2O2-induced decreases in PA SMC NEP activity (NEP in human PA SMCs; Tiron 2.5 mM): prevented

CC(C)C[C@H](NP(=O)(O)O[C@@H]1O[C@@H](C)[C@H](O)[C@@H](O)[C@H]1O)C(=O)N[C@@H](Cc1c[nH]c2ccccc12)C(=O)O [phosphoramidon]
expression of SM-contractile proteins in NEP+/+ cells ([3]; phosphoramidon 10 μMole/L or NEP siRNA 10 nMole/L): decrease
migration in response to serum and PDGF (NEP+/+ PASMCs [4]): increased
inhibition of NEP activity in wild-type cells [5]: completely inhibits
proliferation in response to serum and PDGF (NEP+/+ PASMCs [6]): increased

MnTMPyp
prevention of H2O2-induced decreases in PA SMC NEP activity (NEP in human PA SMCs; Tiron 2.5 mM): prevented

B1: rNEP: recombinant human neprilysin protein (protein, UniProt P08473 2-750, looked up)
Neprilysin: GKSESQMDITDINTPKPKKKQRWTPLEISLSVLVLLLTIIAVTMIALYATYDDGICKSSDCIKSAARLIQNMDATTEPCTDFFKYACGGWLKRNVIPETSSRYGNFDILRDELEVVLKDVLQEPKTEDIVAVQKAKALYRSCINESAIDSRGGEPLLKLLPDIYGWPVATENWEQKYGASWTAEKAIAQLNSKYGKKVLINLFVGTDDKNSVNHVIHIDQPRLGLPSRDYYECTGIYKEACTAYVDFMISVARLIRQEERLPIDENQLALEMNKVMELEKEIANATAKPEDRNDPMLLYNKMTLAQIQNNFSLEINGKPFSWLNFTNEIMSTVNISITNEEDVVVYAPEYLTKLKPILTKYSARDLQNLMSWRFIMDLVSSLSRTYKESRNAFRKALYGTTSETATWRRCANYVNGNMENAVGRLYVEAAFAGESKHVVEDLIAQIREVFIQTLDDLTWMDAETKKRAEEKALAIKERIGYPDDIVSNDNKLNNEYLELNYKEDEYFENIIQNLKFSQSKQLKKLREKVDKDEWISGAAVVNAFYSSGRNQIVFPAGILQPPFFSAQQSNSLNYGGIGMVIGHEITHGFDDNGRNFNKDGDLVDWWTQQSASNFKEQSQCMVYQYGNFSWDLAGGQHLNGINTLGENIADNGGLGQAYRAYQNYIKKNGEEKLLPGLDLNHKQLFFLNFAQVWCGTYRPEYAVNSIKTDVHSPGNFRIIGTLQNSAEFSEAFHCRKNSYMNPEKKCRVW
levels of SM-markers (α-SM-actin, SM-22, calponin) in null PASMCs ([3]; NEP−/− PASMC, lentiviral human NEP construct or rNEP 10 μg/ml): restored
proliferation of the NEP KO PA SMCs (NEP KO PA SMCs): dose-dependent inhibition

B2: PEG-catalase: polyethylene glycol (PEG) conjugated catalase, antioxidant (conjugate, UniProt P00432 2-527, looked up)
Catalase: ADNRDPASDQMKHWKEQRAAQKPDVLTTGGGNPVGDKLNSLTVGPRGPLLVQDVVFTDEMAHFDRERIPERVVHAKGAGAFGYFEVTHDITRYSKAKVFEHIGKRTPIAVRFSTVAGESGSADTVRDPRGFAVKFYTEDGNWDLVGNNTPIFFIRDALLFPSFIHSQKRNPQTHLKDPDMVWDFWSLRPESLHQVSFLFSDRGIPDGHRHMNGYGSHTFKLVNANGEAVYCKFHYKTDQGIKNLSVEDAARLAHEDPDYGLRDLFNAIATGNYPSWTLYIQVMTFSEAEIFPFNPFDLTKVWPHGDYPLIPVGKLVLNRNPVNYFAEVEQLAFDPSNMPPGIEPSPDKMLQGRLFAYPDTHRHRLGPNYLQIPVNCPYRARVANYQRDGPMCMMDNQGGAPNYYPNSFSAPEHQPSALEHRTHFSGDVQRFNSANDDNVTQVRTFYLKVLNEEQRKRLCENIAGHLKDAQLFIQKKAVKNFSDVHPEYGSRIQALLDKYNEEKPKNAVHTYVQHGSHLSAREKANL
modifications: PEG conjugated
notes: polyethylene glycol (PEG) conjugated catalase, antioxidant
prevention of H2O2-induced decreases in PA SMC NEP activity (NEP in human PA SMCs; Tiron 2.5 mM): prevented

From patent US9950044B2, “Treatment of pulmonary vascular remodeling with neprilysin” (THE REGENTS OF THE UNIVERSITY OF COLORADO, A BODY CORPORATE, priority 2010, dated 2018)
